Measurements: US8884101B2, “Method of gene introduction into Triticum plant using Agrobacterium, and a method of producing transformed Triticum plant” (priority 2009, dated 2014)

Tested on: immature embryos of bread wheat (variety: Fielder)
Test: GUS gene expression in wheat immature embryos; effect of adding plant hormone to coculture medium (Example 9)
Format: cell-based, bread wheat (Triticum aestivum)
Details: 5 days resting culture; for degree of GUS gene expression relative to coculture medium not containing plant hormones (FIG. 4) / degree of GUS gene expression relative to coculture medium not containing plant hormones (FIG. 6): 5 μM in coculture medium; for degree of GUS gene expression relative to coculture medium not containing plant hormones (FIG. 4): 16 or 17 immature embryos per group; for degree of GUS gene expression relative to coculture medium not containing plant hormones (FIG. 5): 0.5 μM in coculture medium, 10 immature embryos per group; for degree of GUS gene expression relative to coculture medium not containing plant hormones (FIG. 6): 18 or 19 immature embryos per group
Protocol: Bread wheat (variety: Fielder) was cultivated in a greenhouse equipped with an air conditioner, and the immature embryos (size: 1.5 to 3.0 mm) of the bread wheat were aseptically collected on the 14th day after flowering and were washed once with an Inf liquid medium. Pretreatment (centrifugation at 15000 rpm for 10 min) was performed to enhance the efficiency of gene introduction in an Inf liquid medium. Agrobacterium strain EHA101 (pIG121Hm) was suspended at about 1.0×10^9 cfu/mL in an Inf liquid medium containing 100 μM acetosyringone to prepare an inoculation source. The inoculation source was added to the immature embryos, and the mixture was stirred for 30 sec, followed by leaving to stand at room temperature for 5 min. The immature embryos inoculated with Agrobacterium were placed onto a Co-Cul coculture medium containing 100 μM acetosyringone, 5 μM AgNO3, and 5 μM CuSO4 and also containing 5 μM kinetin or 4PU; 0.5 μM 2,4-D, dicamba, or picloram; or 5 μM 2,4-D, dicamba, or picloram in such a manner that the scutellum faced upward, and were cocultured at 23° C. in the dark. As a control, a Co-Cul coculture medium not containing any plant hormone was used.
On the 2nd day from the beginning of the coculture, the radicles, germs, and embryonic axes were excised using a scalpel and tweezers. The immature embryos were placed onto a resting medium (the composition is the same as that described in Example 1), followed by cultivation at 25° C. in the dark for 5 days. Subsequently, 10 to 19 immature embryos were collected from each group and were immersed in a 0.1 M phosphate buffer (pH 6.8) containing 0.1% Triton X-100 at 37° C. for 1 hr. The phosphate buffer was removed, and a phosphate buffer containing 1.0 mM 5-bromo-4-chloro-3-indolyl-β-D-glucuronic acid (X-gluc) and 20% methanol was added thereto. After treatment at 37° C. for 24 hr, the immature embryos in each group were evaluated for expression of the GUS gene in six grades: 4 (expressed in 75% or more of scutellum), 3 (expressed in 50% to 74% of scutellum), 2 (expressed in 25% to 49% of scutellum), 1 (expressed in 5% to 24% of scutellum), 0.5 (expressed in 1% to 4% of scutellum), and 0 (no expression).
A part of the immature embryos in each test group was harvested on the 5th day of the resting culture, and the GUS gene was expressed. The vertical axis in each of FIGS. 4, 5, and 6 represents the average of GUS gene expression by each immature embryo evaluated in six grades: 4 (expressed in 75% or more of scutellum), 3 (expressed in 50% to 74% of scutellum), 2 (expressed in 25% to 49% of scutellum), 1 (expressed in 5% to 24% of scutellum), 0.5 (expressed in 1% to 4% of scutellum), and 0 (no expression), that is, efficiency of gene introduction shown by expression of the GUS gene.

Structure (SMILES)	degree of GUS gene expression relative to coculture medium not containing plant hormones (FIG. 4)	degree of GUS gene expression relative to coculture medium not containing plant hormones (FIG. 5)	degree of GUS gene expression relative to coculture medium not containing plant hormones (FIG. 6)
O=C(Nc1ccccc1)Nc1ccncc1 [4PU]	slightly lower		
c1coc(CNc2ncnc3[nH]cnc23)c1 [kinetin]	slightly lower		
O=C(O)COc1ccc(Cl)cc1Cl [2,4-D, 2,4-dichlorophenoxyacetic acid]		equivalent to or slightly lower	slightly lower
COc1c(Cl)ccc(Cl)c1C(=O)O [dicamba]		equivalent to or slightly lower	slightly lower
Nc1c(Cl)c(Cl)nc(C(=O)O)c1Cl [picloram]		equivalent to or slightly lower	slightly lower
